{"source": "patent US20060263403A1", "about": "“Compositions and methods for controlling insects involving the tyramine receptor” (priority 2003, published 2006)", "key": {"[1]": {"biological_target": "T1, Drosophila melanogaster tyramine receptor (TyrR) (Drosophila melanogaster, UniProt P22270, C261Y)", "T1 construct": "The open reading frame encodes a protein of 601 amino acids; expressed in transfected cells", "T1 sequence (P22270 27-601 C261Y)": "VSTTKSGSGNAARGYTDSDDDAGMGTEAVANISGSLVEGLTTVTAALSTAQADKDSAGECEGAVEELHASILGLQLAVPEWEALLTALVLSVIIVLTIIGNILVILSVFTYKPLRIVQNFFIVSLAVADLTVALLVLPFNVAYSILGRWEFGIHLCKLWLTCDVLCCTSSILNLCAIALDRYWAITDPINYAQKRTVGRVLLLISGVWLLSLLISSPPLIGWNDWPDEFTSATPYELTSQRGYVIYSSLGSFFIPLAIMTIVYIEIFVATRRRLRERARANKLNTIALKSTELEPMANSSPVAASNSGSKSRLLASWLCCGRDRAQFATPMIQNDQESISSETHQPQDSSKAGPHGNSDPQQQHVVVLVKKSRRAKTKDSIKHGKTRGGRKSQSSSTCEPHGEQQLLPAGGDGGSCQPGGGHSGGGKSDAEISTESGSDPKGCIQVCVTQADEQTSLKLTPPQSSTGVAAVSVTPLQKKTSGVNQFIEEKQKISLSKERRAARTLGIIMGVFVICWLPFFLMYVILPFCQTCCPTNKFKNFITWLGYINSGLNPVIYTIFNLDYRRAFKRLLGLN", "assay": "Intracellular calcium assay (Fura-2 AM) in S2 cells stably expressing pAC-TyrR", "type": "cell-based", "conditions": "for change in [Ca2+]i in response to plant essential oil: 25 μM, compared to EtOH treatment", "method": "(§1) Cells are washed once with insect saline buffer. Cells are collected by scraping and suspended at 1×10^6 cells/ml in insect saline buffer with 5 μM Fura-2 AM. Cells are incubated at 23° C. for 1 hr in the dark, centrifuged, suspended in 1 ml insect saline buffer, and used immediately for calcium measurements. […] This assay is performed four separate times. Data are normalized by dividing each value by the background fluorescence at the beginning of the assay before adding test ligand."}, "[2]": {"biological_target": "T1, Drosophila melanogaster tyramine receptor (TyrR)", "assay": "cell-based", "type": "cell-based", "conditions": "for decrease in cAMP production: 25 μM, vs ethanol-treated cells 0.9056±0.078 pmol cAMP", "method": "(§2) Twenty four hours before cell treatment, 300,000 cells from clone#2 and control cells are plated in 1 ml media with 25 μg blasticidin/ml into 12 well dishes (4.5 cm^2). For cell treatment, the media is aspirated and 1 ml PBS with 300 μM IBMX (3-isobutyl-1-methylxanthine) and the test reagent is added. […] After 10 min incubation, the PBS is aspirated and cells are incubated with 70% ethanol for 12 hours at −20° C. The cellular debris is centrifuged, and then the supernatant is removed and lyophilized to dryness. The amount of cAMP in the extract is determined by using a cAMP binding protein from the ^3H-cAMP Biotrak Assay System (Amersham Biosciences, Piscataway, N.J.) as per the manufacturer's instructions. Cell treatment is performed 3 times with duplicates at each concentration. To test the effects of calcium chelation on cAMP levels, the cells are incubated with 20 μM BAPTA/AM for 10 min before the addition of TA."}, "[3]": {"biological_target": "T1, Drosophila melanogaster tyramine receptor (TyrR)", "assay": "biochemical", "type": "binding", "method": "All steps are performed at 4° C. or on ice. Cells grown in Drosophila media are harvested in the same media by scraping from the dishes and then rinsing dishes with PBS. The cells are centrifuged at 1000 g for 3 min, washed once with PBS and centrifuged again as previously described. The cells are suspended in ice cold hypotonic buffer (10 mM Tris-Cl, pH 7.4), incubated on ice for 10 min, and lysed using a glass dounce homogenizer and tight glass pestle (Kontes Glass Co., Vineland, N.J.) with 10 strokes. Nuclei are pelleted by centrifugation at 600 g for 5 min. The supernatant is decanted and centrifuged at 30,000 g for 30 min to pellet a crude membrane fraction. The pellet is suspended in binding buffer (50 mM Tris-Cl, 5 mM MgCl2, pH 7.4). Protein concentration is determined by the Bradford Assay (Bio-Rad Laboratories, Hercules, Calif.). Membranes are frozen on dry ice then stored at −75° C. in aliquots.\nFor the receptor binding assay, radioligand binding is performed in 500 μl binding buffer containing 10-50 μg membrane protein and 4 nM ^3H-tyramine. The binding reaction is incubated at 23° C. in the presence and absence of 10 μM unlabeled tyramine. Reactions are terminated after 60 min by addition of 3 ml ice cold binding buffer and filtered over GF/C filters that has been soaked for 30 min in 0.3% polyethylenimine. Filters are rinsed one additional time with 3 ml binding buffer. […] The binding activity of tyramine receptor is also studied in the presence and absence of five plant essential oils, shown in FIG. 1. Binding data is analyzed by Scatchard plots using the software GraphPad Prism (San Diego, Calif.). All binding analyses are performed 3 times with duplicate samples in each assay.\nThe binding activity of ^3H-tyramine to membranes expressing the tyramine receptor is performed in the presence and absence of five plant essential oils. These chemicals are selected based on their insecticidal activity and the absence or presence and location of the hydroxyl group within the molecule. […] The specific activity is calculated as the difference between counts in the presence and absence of test chemical."}, "[4]": {"test_system": "S2 cells transfected with plasmid lacking TyrR", "assay": "cAMP assay in control S2 cells transfected with plasmid lacking TyrR", "type": "cell-based, Drosophila melanogaster", "conditions": "TA up to 100 μM, compared to non-transfected cells", "method": "as §2"}, "[5]": {"test_system": "S2 cells transfected with pAC lacking an insert", "assay": "Intracellular calcium assay in S2 cells transfected with pAC lacking an insert", "type": "cell-based, Drosophila melanogaster", "conditions": "10 μM TA, compared to untransfected S2 cells", "method": "as §1"}, "[6]": {"test_system": "tyramine receptor mutant (TyrR^neo30) Drosophila melanogaster", "type": "in vivo", "conditions": "for toxicity against TyrR^neo30 strain compared with wild type: topical application", "method": "(§3) Quantitative Structure Activity Relationships (QSARs) for five monoterpenoid plant essential oils is determined against wild type and tyramine receptor mutant (TyrR^neo30) Drosophila melanogaster strains. […] In addition, monocyclic-unsaturated alcohol (a-terpenoil), and a monocylic di-unsaturated ketone (L-carvone) are also tested. […] Acetonic solutions of plant essential oils are prepared and different concentrations of each, that gave from 10%-100% mortality, are applied by topical application. Three replicates, with 5 flies per replicate, are used for each concentration. Controls treated with the same volume (0.5 μl/fly) of acetone. […] To determine whether the tyramine receptor is involved in the toxicity of tested plant essential oils, tyramine receptor mutant (TyrR^neo30) Drosophila melanogaster strain is topically treated with a dose equivalent to the determined LD50 for wild type strain. The mortality is calculated 24 hrs after treatment. Three replicates and 5 insects per replicate are used for the bioassay of each chemical. This bioassay is repeated five times."}, "[7]": {"test_system": "wild type Drosophila melanogaster", "assay": "Topical toxicity bioassay against wild type Drosophila melanogaster fly", "type": "in vivo", "conditions": "for Wild type-calculated LD50 values: topical application, probit analysis; for % Mortality at LD50 of wild type Drosophila melanogaster strain: Wild type: topical dose equal to wild type LD50, 24 h after treatment", "method": "as §3"}, "[8]": {"biological_target": "T1, Drosophila melanogaster tyramine receptor (TyrR)", "conditions": "saturation binding, 0.1-30 nM 3H-tyramine, membranes of clone#2 S2 cells; read-out: Kd for specific binding"}}, "note": "Read-outs that look alike come from different tables or passages of the source."}
{"smiles": "CC1=CCC(C(C)(C)O)CC1", "note": "(stereo not drawn) [a-terpineol, p-menth-1-en-8-ol]", "values": [{"measurement": "change in [Ca2+]i in response to plant essential oil", "setting": "[1]", "value": "remarkable increase in [Ca^2+]i"}, {"measurement": "decrease in cAMP production", "setting": "[2]; 300 μM IBMX", "value": 22, "unit": "%"}]}
{"smiles": "NCCc1c[nH]cn1", "note": "[Histamine (His), Histamine]", "values": [{"measurement": "Ki", "setting": "[3]", "value": "193 ± 16.8", "unit": "µM"}]}
{"smiles": "CC(=O)OCOC(=O)CN(CC(=O)OCOC(C)=O)c1ccccc1OCCOc1ccccc1N(CC(=O)OCOC(C)=O)CC(=O)OCOC(C)=O", "note": "[BAPTA/AM]", "values": [{"measurement": "effect on TA-induced increase in free [Ca2+]i", "setting": "[1]; 20 μM BAPTA/AM, 1 μM TA", "value": "inhibit the increase in free [Ca^2+]i"}]}
{"smiles": "NCC(O)c1ccc(O)cc1", "note": "(racemic) [Octopamine (OA), DL-octopamine]", "values": [{"measurement": "Ki", "setting": "[3]; competitive binding vs 4 nM 3H-tyramine, membranes from Schneider Drosophila cells expressing TyrR, mean and standard deviation, read-out: Ki", "value": 28.7, "unit": "µM"}]}
{"smiles": "NCCc1ccc(O)c(O)c1", "note": "[Dopamine (DA), Dopamine]", "values": [{"measurement": "Ki", "setting": "[3]", "value": "57.5 ± 3.91", "unit": "µM"}]}
{"smiles": "NCCc1ccc(O)cc1", "note": "[Tyramine (TA), Tyramine]", "values": [{"measurement": "effect on cAMP levels in control cells", "setting": "[4]", "value": "significant effects on cAMP levels as compared to non-transfected cells are not produced"}, {"measurement": "change in [Ca2+]i in response to TA", "setting": "[1]; 1 μM TA, clone#2 cells", "value": "rapid increase in [Ca^2+]i"}, {"measurement": "duration of transient peak in [Ca2+]i level", "setting": "[1]; TA application", "value": "~20", "unit": "s"}, {"measurement": "lowest concentration that can increase [Ca2+]i levels", "setting": "[1]; clone#2 cells", "value": 20, "unit": "nM"}, {"measurement": "effect on [Ca2+]i in control cells", "setting": "[5]", "value": "does not increase the level of [Ca^2+]i"}, {"measurement": "IC50", "setting": "[2]", "value": 5.8, "unit": "µM"}, {"measurement": "decrease in the basal level of cAMP", "setting": "[2]; TA 10 μM, 300 μM IBMX, basal 0.601±0.080 pmol cAMP", "value": 18, "unit": "%"}, {"measurement": "Ki", "setting": "[3]", "value": 1.27, "unit": "µM"}, {"measurement": "affinity of TA relative to DL-octopamine for TyrR", "setting": "[3]; ratio of Ki values", "value": "about 22.58 fold"}]}
{"smiles": "Cc1ccc(C(C)C)cc1", "note": "[p-cymene, 1-methyl-4-(1-methylethyl)benzene]", "values": [{"measurement": "change in [Ca2+]i in response to plant essential oil", "setting": "[1]", "value": "slight increase in [Ca^2+]i"}, {"measurement": "% Mortality at LD50 of wild type Drosophila melanogaster strain: TyrR^neo30", "setting": "[6]; in vivo", "value": 56.0, "unit": "%"}, {"measurement": "toxicity against TyrR^neo30 strain compared with wild type", "setting": "[6]", "value": "does not affect the toxicity"}, {"measurement": "decrease in cAMP production", "setting": "[2]; 300 μM IBMX", "value": 13, "unit": "%"}, {"measurement": "Wild type-calculated LD50 values", "setting": "[7]", "value": 15.5, "unit": "μg/fly"}, {"measurement": "% Mortality at LD50 of wild type Drosophila melanogaster strain: Wild type", "setting": "[7]", "value": 57.3, "unit": "%"}]}
{"smiles": "NCCc1c[nH]c2ccc(O)cc12", "note": "[Serotonin (SE), Serotonin]", "values": [{"measurement": "Ki", "setting": "[3]", "value": "89.5 ± 9.01", "unit": "µM"}]}
{"smiles": "NCCc1ccc(O)cc1", "note": "[^3H-tyramine]", "values": [{"measurement": "Kd", "setting": "[8]", "value": 0.00256, "unit": "µM"}]}
{"smiles": "CN(C)CCCN1c2ccccc2Sc2ccc(Cl)cc21", "note": "[Chlorpromazine]", "values": [{"measurement": "Ki", "setting": "[3]", "value": "0.193 ± 0.05", "unit": "µM"}]}
{"smiles": "Cc1ccc(N(CC2=NCCN2)c2cccc(O)c2)cc1", "note": "[Phentolamine]", "values": [{"measurement": "Ki", "setting": "[3]", "value": "0.125 ± 0.02", "unit": "µM"}]}
{"smiles": "COC(=O)[C@@H]1[C@H]2C[C@H]3c4[nH]c5ccccc5c4CCN3C[C@@H]2CC[C@@H]1O", "note": "[Yohimbine]", "values": [{"measurement": "Ki", "setting": "[3]", "value": "0.071 ± 0.001", "unit": "µM"}]}
{"smiles": "C=C(C)[C@@H]1CC=C(C)C(=O)C1", "note": "[L-carvone, p-mentha-6,8-dien-2-one]", "values": [{"measurement": "change in [Ca2+]i in response to plant essential oil", "setting": "[1]", "value": "remarkable increase in [Ca^2+]i"}, {"measurement": "toxicity against TyrR^neo30 strain compared with wild type", "setting": "[6]", "value": "does not affect the toxicity"}, {"measurement": "% Mortality at LD50 of wild type Drosophila melanogaster strain: TyrR^neo30", "setting": "[6]; topical dose equal to wild type LD50, 24 h after treatment", "value": 38.7, "unit": "%"}, {"measurement": "decrease in cAMP production", "setting": "[2]; 300 μM IBMX", "value": 24, "unit": "%"}, {"measurement": "Wild type-calculated LD50 values", "setting": "[7]", "value": 2.3, "unit": "μg/fly"}, {"measurement": "% Mortality at LD50 of wild type Drosophila melanogaster strain: Wild type", "setting": "[7]", "value": 37.3, "unit": "%"}, {"measurement": "toxicity of L-carvone relative to a-terpineol", "setting": "[7]; wild type strain", "value": "about 5 fold"}]}
